From patent US20100168102A9, “Amide Derivatives as Kinase Inhibitors” (Devgen NV, priority 2005, published 2010)
Structures can show the parent of a compound that is named as a salt. Where two headings read alike, the source gives them in different places.

Legend:
[1] = molecular target: T1, PKC epsilon (Homo sapiens, UniProt Q02156); test: Biochemical assay for PKC epsilon (fluorescence polarization, Protein Kinase C Assay Kit, Red); conditions: read-out: IC50 μM PKCε
T1 construct: purchased Invitrogen P2282
T1 sequence (Q02156 1-737): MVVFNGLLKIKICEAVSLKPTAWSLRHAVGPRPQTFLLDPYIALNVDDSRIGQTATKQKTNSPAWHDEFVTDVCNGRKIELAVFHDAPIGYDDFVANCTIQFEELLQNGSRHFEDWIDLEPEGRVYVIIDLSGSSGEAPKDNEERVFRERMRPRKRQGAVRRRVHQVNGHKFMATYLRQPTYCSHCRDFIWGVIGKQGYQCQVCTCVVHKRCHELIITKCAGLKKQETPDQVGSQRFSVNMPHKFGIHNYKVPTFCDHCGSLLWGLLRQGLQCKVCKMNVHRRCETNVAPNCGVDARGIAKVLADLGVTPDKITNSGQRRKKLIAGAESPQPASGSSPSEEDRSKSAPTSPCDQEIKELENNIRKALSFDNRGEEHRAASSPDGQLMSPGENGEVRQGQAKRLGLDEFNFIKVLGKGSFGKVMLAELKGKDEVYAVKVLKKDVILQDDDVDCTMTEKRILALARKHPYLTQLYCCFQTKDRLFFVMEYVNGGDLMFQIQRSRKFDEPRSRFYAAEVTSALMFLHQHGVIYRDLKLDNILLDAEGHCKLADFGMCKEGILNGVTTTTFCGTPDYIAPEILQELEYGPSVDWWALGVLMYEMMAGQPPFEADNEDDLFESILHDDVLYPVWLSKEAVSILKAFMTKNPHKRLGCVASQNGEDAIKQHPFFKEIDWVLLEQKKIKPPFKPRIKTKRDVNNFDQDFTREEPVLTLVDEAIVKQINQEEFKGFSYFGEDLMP
Method in brief: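 Read-out was fluorescence-polarization competition between phosphorylated substrate and a rhodamine PKC tracer for an anti-phosphoserine antibody, added with EDTA stop after an 80 min room-temperature kinase reaction with ATP and protein substrate (Mg2+/Ca2+ buffer). Enzyme (10 ng/ml final) was preincubated with compound for 30 min.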

[2] = molecular target: T2, human ROCKα/ROCKII mix (Homo sapiens, UniProt O75116); test: Biochemical assay for ROCK (fluorescence polarization, ROCK IMAP Kit)
T2 construct: purchased Upstate Biotechnology 14-451

[3] = compounds of Formula XIV, Table 3
[4] = Table 2, compounds of Formula XIII

T2 sequence (O75116 11-552 limits assumed): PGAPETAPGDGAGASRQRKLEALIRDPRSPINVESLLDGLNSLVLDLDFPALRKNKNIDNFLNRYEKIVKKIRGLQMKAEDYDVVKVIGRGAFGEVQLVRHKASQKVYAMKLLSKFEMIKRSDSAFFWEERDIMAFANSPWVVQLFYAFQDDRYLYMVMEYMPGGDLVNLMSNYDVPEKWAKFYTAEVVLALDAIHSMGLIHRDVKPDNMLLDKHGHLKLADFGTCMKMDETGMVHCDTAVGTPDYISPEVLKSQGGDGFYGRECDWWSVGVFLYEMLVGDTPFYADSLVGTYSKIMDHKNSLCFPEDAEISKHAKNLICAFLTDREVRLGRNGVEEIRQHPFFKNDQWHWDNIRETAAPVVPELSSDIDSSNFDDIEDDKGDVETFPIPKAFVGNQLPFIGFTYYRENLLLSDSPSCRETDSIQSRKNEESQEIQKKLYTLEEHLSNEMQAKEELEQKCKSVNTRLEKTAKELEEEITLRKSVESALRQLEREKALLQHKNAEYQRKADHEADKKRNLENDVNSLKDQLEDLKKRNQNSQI

Row | Molecule | IC50 [1] [µM] | IC50 [2] [µM] | IC50 [1, 4] [µM] | IC50 [2, 4] [µM] | other results
1 | CC(=O)NCCNC(=O)CC(N)c1ccc(C(=O)Nc2ccncc2)cc1 (stereo not shown) [Compound 175, 4-[2-(2-acetylamino-ethylcaramoyl)-1-amino-ethyl]-N-pyridin-4-yl-benzamide] | – | – | – | – | IC50 [1, 3]: 0.5 to 5 µM; IC50 [2, 3]: 0.05 to 0.5 µM
2 | NC(CNC(=S)Nc1cccc2ccccc12)c1ccc(C(=O)Nc2ccncc2)cc1 (stereo not shown) [Compound 17, 4-[1-amino-2-(3-naphtalen-1-yl-thioureido)-ethyl]-N-pyridin-4-yl-benzamide] | 0.05 to 0.5 | 0.05 to 0.5 | – | – | –
3 | NC(CC(=O)Nc1ccccc1)c1ccc(C(=O)Nc2ccncc2)cc1 (stereo not shown) [Compound 316] | – | – | – | – | IC50 [1, 3]: 0.5 to 5 µM; IC50 [2, 3]: 0.05 to 0.5 µM
4 | Cc1ccc(CCNC(=O)CC(N)c2ccc(C(=O)Nc3ccncc3)cc2)cc1 (stereo not shown) [Compound 284, 4-[1-Amino-2-(2-p-tolyl-ethyl-carbamoyl)-ethyl]-N-pyridin-4-yl-benzamide] | – | – | – | – | IC50 [1, 3]: 5 to 50 µM; IC50 [2, 3]: 0.05 to 0.5 µM
5 | NC(c1ccc(C(=O)Nc2ccncc2)cc1)C1CCCN1C(=O)C1(c2ccc(F)cc2)CCC1 (stereo not shown) [Compound 575, 4-(Amino-{1-[1-(4-fluoro-phenyl)-cyclobutanecarbonyl]-pyrrolidin-2-yl}-methyl)-N-pyridin-4-yl-benzamide] | 0.5 to 5 | 0.5 to 5 | – | – | –
6 | CC[C@@H](NC(=O)CC(N)c1ccc(C(=O)Nc2ccncc2)cc1)c1ccccc1 (stereo partly drawn) [Compound 216, 4-[1-Amino-2-(1-(R)-phenyl-propylcarbamoyl)-ethyl]-N-pyridin-4-yl-benzamide] | – | – | – | – | IC50 [1, 3]: 0.5 to 5 µM; IC50 [2, 3]: 0.05 to 0.5 µM
7 | NC(c1ccc(C(=O)Nc2ccncc2)cc1)C1CCCN1C(=O)C(c1ccccc1)C1CCCC1 (stereo not shown) [Compound 556, 4-{Amino-[1-(2-cyclopentyl-2-phenyl-acetyl)-pyrrolidin-2-yl]-methyl}-N-pyridin-4-yl-benzamide] | 5 to 50 | 0.5 to 5 | – | – | –
8 | NC(CNC(=O)C1(c2cccs2)CC1)c1ccc(C(=O)Nc2ccncc2)cc1 (stereo not shown) [Compound 349, 4-{1-Amino-2-[(1-thiophen-2-yl-cyclopropanecarbonyl)-amino]-ethyl}-N-pyridin-4-yl-benzamide] | – | – | 0.05 to 0.5 | 0.05 to 0.5 | –
9 | NC(CC(=O)NCCc1ccc(Cl)c(Cl)c1)c1ccc(C(=O)Nc2ccncc2)cc1 (stereo not shown) [Compound 304] | – | – | – | – | IC50 [1, 3]: 0.5 to 5 µM; IC50 [2, 3]: 0.05 to 0.5 µM
10 | CCOC(=O)CCNC(=O)NCC(N)c1ccc(C(=O)Nc2ccncc2)cc1 (stereo not shown) [Compound 6, 3-(3-{2-amino-2-[4-(pyridin-4-ylcarbamoyl)-phenyl]-ethyl}-ureido)-propionic acid ethyl ester] | 5 to 50 | 0.5 to 5 | – | – | –
11 | NC(CNC(=O)C1(c2ccc(F)c(F)c2)CC1)c1ccc(C(=O)Nc2ccncc2)cc1 (stereo not shown) [Compound 377, 4-(1-Amino-2-{[1-(3,4-difluoro-phenyl)-cyclopropanecarbonyl]-amino}-ethyl)-N-pyridin-4-yl-benzamide] | – | – | < 0.05 | 0.05 to 0.5 | –
12 | NC(CNC(=O)C1(c2ccc(F)c(F)c2)CCCC1)c1ccc(C(=O)Nc2ccncc2)cc1 (stereo not shown) [Compound 379, 4-(1-Amino-2-{[1-(3,4-difluoro-phenyl)-cyclopentanecarbonyl]-amino}-ethyl)-N-pyridin-4-yl-benzamide] | – | – | < 0.05 | 0.05 to 0.5 | –
13 | NC(CNC(=O)c1ccc2cc[nH]c2c1)c1ccc(C(=O)Nc2ccncc2)cc1 (stereo not shown) [Compound 131, 1H-Indole-6-carboxylic acid {2-amino-2-[4-(pyridin-4-ylcarbamoyl)-phenyl]-ethyl}-amide] | – | – | 5 to 50 | 0.5 to 5 | –
14 | NC(c1ccc(C(=O)Nc2ccncc2)cc1)C1CCCN1C(=O)Cc1ccccc1 (stereo not shown) [Compound 521, 4-[Amino-(1-phenylacetyl-pyrrolidin-2-yl)-methyl]-N-pyridin-4-yl-benzamide] | 0.5 to 5 | 0.05 to 0.5 | – | – | –
15 | CCNS(=O)(=O)c1cccc(C(=O)NCC(N)c2ccc(C(=O)Nc3ccncc3)cc2)c1 (stereo not shown) [Compound 97, 4-[1-amino-2-(3-ethylsulfamoyl-benzoylamino)-ethyl]-N-pyridin-4-yl-benzamide] | – | – | 0.5 to 5 | 0.5 to 5 | –
16 | N[C@H](CNC(=O)C1(c2ccc(Cl)cc2)CC1)c1ccc(C(=O)Nc2ccncc2)cc1 [Compound 397, 4-((S)-1-Amino-2-{[1-(4-chloro-phenyl)-cyclopropanecarbonyl]-amino}-ethyl)-N-pyridin-4-yl-benzamide dihydrochloric acid salt] | < 0.05 | 0.05 to 0.5 | – | – | –

Row | Molecule | IC50 [1] [µM] | IC50 [2] [µM] | IC50 [1, 4] [µM] | IC50 [2, 4] [µM] | other results
17 | NC(c1ccc(C(=O)Nc2ccncc2)cc1)C1CCCN1C(=O)C1(c2ccc(F)c(Cl)c2)CC1 (stereo not shown) [Compound 607, 4-(Amino-{1-[1-(3-chloro-4-fluoro-phenyl)-cyclopropanecarbonyl]-pyrrolidin-2-yl}-methyl)-N-pyridin-4-yl-benzamide] | 0.5 to 5 | 0.5 to 5 | – | – | –
18 | NC(c1ccc(C(=O)Nc2ccncc2)cc1)C1CCCN1C(=O)Cc1ccc2ccccc2c1 (stereo not shown) [Compound 535, 4-{Amino-[1-(2-naphthalen-2-yl-acetyl)-pyrrolidin-2-yl]-methyl}-N-pyridin-4-yl-benzamide] | 0.5 to 5 | 0.5 to 5 | – | – | –
19 | NC(c1ccc(C(=O)Nc2ccncc2)cc1)C1CCCN1C(=O)Cc1cccc2ccccc12 (stereo not shown) [Compound 536, 4-{Amino-[1-(2-naphthalen-1-yl-acetyl)-pyrrolidin-2-yl]-methyl}-N-pyridin-4-yl-benzamide] | 0.5 to 5 | 0.5 to 5 | – | – | –
20 | Cc1cccc(C(=O)NCC(N)c2ccc(C(=O)Nc3ccncc3)cc2)c1 (stereo not shown) [Compound 85, 4-[1-amino-2-(3-methyl-benzoylamino)-ethyl]-N-pyridin-4-yl-benzamide] | – | – | 0.5 to 5 | 0.5 to 5 | –
21 | CNS(=O)(=O)c1ccc(C(=O)NCC(N)c2ccc(C(=O)Nc3ccncc3)cc2)cc1 (stereo not shown) [Compound 98, 4-[1-amino-2-(4-methylsulfamoyl-benzoylamino)-ethyl]-N-pyridin-4-yl-benzamide] | – | – | 5 to 50 | 0.5 to 5 | –
22 | NC(CNC(=O)C1(c2ccc(F)cc2Cl)CC1)c1ccc(C(=O)Nc2ccncc2)cc1 (stereo not shown) [Compound 387, 4-(1-Amino-2-{[1-(2-chloro-4-fluoro-phenyl)-cyclopropanecarbonyl]-amino}-ethyl)-N-pyridin-4-yl-benzamide] | – | – | < 0.05 | 0.05 to 0.5 | –
23 | NC(CNC(=O)C1CCCC1)c1ccc(C(=O)Nc2ccncc2)cc1 (stereo not shown) [Compound 42, 4-[1-Amino-2-(cyclopentanecarbonyl-amino)-ethyl]-N-pyridin-4-yl-benzamide] | – | – | 0.5 to 5 | 0.5 to 5 | –
24 | Cc1ccccc1NC(=S)NCC(N)c1ccc(C(=O)Nc2ccncc2)cc1 (stereo not shown) [Compound 12, 4-[1-amino-2-(3-o-tolyl-thioureido)-ethyl]-N-pyridin-4-yl-benzamide] | 0.05 to 0.5 | 0.5 to 5 | – | – | –
25 | CC(=O)NCC(N)c1ccc(C(=O)Nc2ccncc2)cc1 (stereo not shown) [Compound 31, 4-(2-Acetylamino-1-amino-ethyl)-N-pyridin-4-yl-benzamide] | – | – | 5 to 50 | 0.5 to 5 | –
26 | 4-{1-amino-2-[2-(4-bromo-2- methoxy-phenyl)- ethylcarbamoyl]-ethyl}-N- pyridin-4-yl-benzamide [Compound 310] | – | – | – | – | IC50 [1, 3]: 0.5 to 5 µM; IC50 [2, 3]: 0.05 to 0.5 µM
27 | NC(CNC(=O)CC1CCCCC1)c1ccc(C(=O)Nc2ccncc2)cc1 (stereo not shown) [Compound 50, 4-[1-Amino-2-(2-cyclohexyl-acetylamino)-ethyl]-N-pyridin-4-yl-benzamide] | – | – | 0.5 to 5 | 0.5 to 5 | –
28 | NC(CC(=O)NCCc1cccc(Cl)c1)c1ccc(C(=O)Nc2ccncc2)cc1 (stereo not shown) [Compound 298, 4-{1-Amino-2-[2-(3-chloro-phenyl)-ethylcarbamoyl]-ethyl}-N-pyridin-4-yl-benzamide] | – | – | – | – | IC50 [1, 3]: 0.5 to 5 µM; IC50 [2, 3]: 0.05 to 0.5 µM
29 | CS(=O)(=O)NCCNC(=O)CC(N)c1ccc(C(=O)Nc2ccncc2)cc1 (stereo not shown) [Compound 176, 4-[1-amino-2-(2-methanesulfonylamino-ethylcarbamoyl)-ethyl]-N-pyridin-4-yl-benzamide] | – | – | – | – | IC50 [1, 3]: 0.5 to 5 µM; IC50 [2, 3]: 0.05 to 0.5 µM
30 | CC(C)(Cc1ccc(F)cc1)NC(=O)CC(N)c1ccc(C(=O)Nc2ccncc2)cc1 (stereo not shown) [Compound 308, 4-{1-amino-2-[2-(4-fluoro-phenyl)-1,1-dimethyl-ethylcarbamoyl]-ethyl}-N-pyridin-4-yl-benzamide] | – | – | – | – | IC50 [1, 3]: 0.05 to 0.5 µM; IC50 [2, 3]: 0.05 to 0.5 µM
31 | 4-[1-Amino-2-(methyl- phenylacetyl-amino)-ethyl]- N-pyridin-4-yl-benzamide [Compound 420] | 5 to 50 | 0.5 to 5 | – | – | –
32 | Cc1ccccc1C(=O)NCC(N)c1ccc(C(=O)Nc2ccncc2)cc1 (stereo not shown) [Compound 84, 4-[1-amino-2-(2-methyl-benzoylamino)-ethyl]-N-pyridin-4-yl-benzamide] | – | – | 5 to 50 | 0.5 to 5 | –
